Assay results taken from patent publication US20040023884A1, “Biologically active peptides from functional domains of bactericidal/permeability-increasing protein and uses thereof” (priority 1993, published 2004).
pKd: −log10 of the molar value. Converted amounts (≈) assume the structure as drawn. Square brackets hold non-standard residues; d marks the D form. Ends that are not written are not given here. Peptide text beside a SMILES is read from it. Phe(4-NH2) = Nc1ccc(C[C@H](N)C(=O)O)cc1; 1Nal = N[C@@H](Cc1cccc2ccccc12)C(=O)O

Columns and labels:
Staphylococcus aureus = experiment: Radial diffusion bactericidal assay, Staphylococcus aureus; type: cell-based; details: radial diffusion; PROBIT analysis; S. aureus
[1] = test system: E. coli 0111:B4 (smooth) bacteria; experiment: Radial diffusion bactericidal assay, E. coli 0111:B4; type: cell-based; details: radial diffusion; PROBIT analysis; E. coli O111:B4 (smooth)
C. albicans = experiment: Radial diffusion fungicidal assay, Candida albicans; type: cell-based; details: for C. albicans: pmol required for 30 mm^2 zone: radial diffusion
[2] = test system: rough mutant E. coli J5 bacteria; experiment: Radial diffusion bactericidal assay, E. coli J5; type: cell-based; details: for pmol added to well to achieve a 30 mm^2 bactericidal zone, E. coli J5: PROBIT analysis, E. coli J5 (rough); for activity of position 95 substitution variants (in words): activity not further specified
In short: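 Log-phase bacteria, washed in 10 mM sodium phosphate pH 7.4, were seeded at 4×10^6 CFU/mL in underlayer agarose. BPI fragments (5 or 10 μL) went into 3 mm wells for 3 h at 37° C., then overlayer agarose was added. After overnight 37° C. incubation, clearing zones were measured by micrometer.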

Candida albicans = type: cell-based
[3] = 3H-heparin binding assay (affinity and capacity); details: for Heparin Capacity: heparin bound at saturation; for pKd: read-out: Heparin Affinity
In short: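 Peptide fragments were bound to PVDF-membrane wells and incubated with 3H-heparin in blocking buffer for 1 h at 4 °C. After washing, bound radioactivity was quantified by liquid scintillation counting, with BSA background subtracted; rBPI23 served as positive control.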

RAW 264.7 cells = experiment: LPS neutralization cellular proliferation assay, RAW 264.7 cells; type: cell-based, mouse
Procedure: In this assay, mouse RAW 264.7 cells (ATCC Accession No. T1B71), maintained in RPMI 1640 media (GIBCO), supplemented with 10 mM HEPES buffer (pH 7.4), 2 mM L-glutamine, penicillin (100U/mL), streptomcin (100 μg/mL), 0.075% sodium bicarbonate, […] 2-mercaptoethanol and 10% fetal bovine serum (Hyclone, Inc., Logan, Utah), were first induced by incubation in the presence of 50U/mL recombinant mouse y-interferon (Genzyme, Cambridge, Mass.) for 24 h prior to assay. Induced cells were then mechanically collected and centrifuged at 500×g at 4° C. and then resuspended in 50 mL RPMI 1640 media (without supplements), re-centrifuged and again resuspended in RPMI 1640 media (without supplements). The cells were counted and their concentration adjusted to 2×10^5 cells/mL and 100 μL aliquots were added to each well of a 96-well microtitre plate. The cells were then incubated for about 15 hours with E. coli O113 LPS (Control Standard. Assoc. of Cape Cod. Woods Hole, Mass.), which was added in 100 μL/well aliquots at a concentration of […] in serum-free RPMI 1640 media (this concentration being the result of titration experiments in which LPS concentration was varied between 50 pg/mL and 100 ng/mL). This incubation was performed in the absence or presence of BPI functional domain peptides in varying concentrations between 25 ng/mL and 50 μg/mL. Recombinant human BPI was used as a positive control at a concentration of 1 μg/mL. Cell proliferation was quantitatively measured by the addition of 1 μCi/well [^3H]-thymidine 5 hours after the time of initiation of the assay. After the 15-hour incubation, labeled cells were harvested onto glass fiber filters with a cell harvester (Inotech Biosystems, EQ-384, Sample Processing and Filter Counting System, Lansing, Mich.).

Row | Compound | pmol added to well to achieve a 30 mm^2 bactericidal zone, S. aureus (Staphylococcus aureus) | pmol added to well to achieve a 30 mm^2 bactericidal zone, E. coli O111:B4 [1] | C. albicans: pmol required for 30 mm^2 zone (C. albicans) [pmol] | pmol added to well to achieve a 30 mm^2 bactericidal zone, E. coli J5 ([2]; radial diffusion) | MIC C. alb (Candida albicans) [µg/mL] | Heparin Capacity [3] [ng] | pKd [3] | EC50 (peptide concentration at which the growth inhibitory effect of LPS was reversed by 50%) (RAW 264.7 cells) | IC50 (peptide concentration at which RAW cell growth was inhibited by 50%) (RAW 264.7 cells) | heparin binding capacity (in words) [3] | activity of position 95 substitution variants (in words) [2] | bactericidal activity (in words) ([2]; radial diffusion, E. coli J5) | fold decrease in the radial diffusion assay test (fungicidal activity) (C. albicans; vs BPI.13)
1 | KSKVGVLIQLFHKK [BPI.166] | b (no detectable activity up to 5 μg/well) | 9,586.00 pmol | 170.65 | 514.00 pmol | 3.13 | – | – | – | – | – | – | – | –
2 | KSKVFWLIQLFHKK [BPI.95] | b (no detectable activity up to 5 μg/well) | 2,809.70 pmol | >1397.64 | 330.88 pmol | – | 224.5 | 6.26 | – | – | – | – | – | –
3 | KSKVGWLIQLFLKK [BPI.87] | 868,991.70 pmol | 23,949.00 pmol | >1535.78 | 188.72 pmol | – | 280.0 | 6.24 | – | – | – | – | – | –
4 | KSKVGWLIQLFFKK [BPI.94] | 9,446.60 pmol | 3,658.80 pmol | >922.54 | 922.54 pmol | – | 216.1 | 6.39 | – | – | – | – | – | –
5 | KWAFAKKQKKRLKRQWLKKF [BPI.150] | b (no detectable activity up to 5 μg/well) | 3,610.00 pmol | >2380.67 | 220.00 pmol | – | – | – | – | – | – | – | – | –
6 | KWKAAARFLKKSKVGWLIQLFHKK [BPI.145] | b (no detectable activity up to 5 μg/well) | 9,561.00 pmol | >1886.58 | 250.00 pmol | – | – | – | – | – | – | – | – | –
7 | KSKVKFLIQLFHKK [BPI.138] | b (no detectable activity up to 5 μg/well) | 995.40 pmol | 256.82 | 64.57 pmol | 3.13 | – | – | – | – | – | – | – | –
8 | KSKVLWLIQLFHKK [BPI.85] | 14,677.13 pmol | 295,208.43 pmol | >1881.18 | 227.35 pmol | – | 233.1 | 6.17 | – | – | – | – | – | –
9 | KSKVGWLIQWFHKK [BPI.142] | b (no detectable activity up to 5 μg/well) | b (no detectable activity up to 5 μg/well) | 1243.79 | 922.21 pmol | 12.50 | – | – | – | – | – | – | – | –
10 | KWKVFKKIEKKSKVGWLIQLFHKK [BPI.149] | b (no detectable activity up to 5 μg/well) | 391.00 pmol | >1397.76 | 44.00 pmol | 12.50 | – | – | – | – | – | – | – | –
11 | CC(C)C[C@H](NC(=O)[C@H](Cc1ccccc1)NC(=O)[C@H](CCCNC(=N)N)NC(=O)[C@H](Cc1cccc2ccccc12)NC(=O)[C@H](Cc1cccc2ccccc12)NC(=O)[C@H](C)NC(=O)[C@H](CCCCN)NC(=O)[C@H](Cc1c[nH]c2ccccc12)NC(=O)[C@H](CCCCN)NC(=O)[C@H](CCCCN)NC(=O)[C@H](CC(C)C)NC(=O)[C@H](Cc1ccccc1)NC(=O)[C@H](CCCNC(=N)N)NC(=O)[C@H](Cc1cccc2ccccc12)NC(=O)[C@H](Cc1cccc2ccccc12)NC(=O)[C@H](C)NC(=O)[C@H](CCCCN)NC(=O)[C@H](Cc1c[nH]c2ccccc12)NC(=O)[C@H](CCCCN)NC(=O)[C@H](CCCCN)NC(=O)[C@H](CC(C)C)NC(=O)[C@H](Cc1ccccc1)NC(=O)[C@H](CCCNC(=N)N)NC(=O)[C@H](Cc1cccc2ccccc12)NC(=O)[C@H](Cc1cccc2ccccc12)NC(=O)[C@H](C)NC(=O)[C@H](CCCCN)NC(=O)[C@H](Cc1c[nH]c2ccccc12)NC(=O)[C@@H](N)CCCCN)C(=O)N[C@@H](CCCCN)C(=O)O [BPI.157] (H-KWKA[1Nal][1Nal]RFLKKWKA[1Nal][1Nal]RFLKKWKA[1Nal][1Nal]RFLK-OH; N-terminus and C-terminus assumed) | – | – | – | – | >100.00 | – | – | comparable to BPI.29 | lower IC5 | – | – | – | –
12 | CC[C@H](C)[C@H](NC(=O)[C@H](CC(C)C)NC(=O)[C@H](Cc1c[nH]c2ccccc12)NC(=O)[C@H](Cc1ccc(N)cc1)NC(=O)[C@@H](NC(=O)[C@H](CCCCN)NC(=O)[C@H](CO)NC(=O)[C@@H](N)CCCCN)C(C)C)C(=O)N[C@@H](CCC(N)=O)C(=O)N[C@@H](CC(C)C)C(=O)N[C@@H](Cc1ccccc1)C(=O)N[C@@H](Cc1c[nH]cn1)C(=O)N[C@@H](CCCCN)C(=O)N[C@@H](CCCCN)C(=O)O [BPI.134] (H-KSKV[Phe(4-NH2)]WLIQLFHKK-OH; N-terminus and C-terminus assumed) | b (no detectable activity up to 5 μg/well) | 580.11 pmol | 1254.98 | 162.50 pmol | 12.50 (≈ 6.88 µM) | – | – | – | – | – | – | – | –
13 | IKISGKWKAQFRFLK [BPI.73] | 2,313,133.50 pmol | 3,290.60 pmol | – | 57.28 pmol | – | 413.4 | 6.64 | 22 ± 10 µg/mL | — (No proliferation decrease up to 50 μg/ml) | extremely high heparin capacity | improved activity compared with the alanine substitution species | highly bactericidal | –
14 | CKSKVGWLIQLFHKKC [BPI.137] | b (no detectable activity up to 5 μg/well) | 87,980.00 pmol | >2285.73 | 1,390.00 pmol | – | – | – | – | – | – | – | – | –
15 | IKISGKWKAQFDRFLK [BPI.76] | b (no detectable activity up to 5 μg/well) | b (no detectable activity up to 5 μg/well) | – | 10,519.55 pmol | – | 144.4 | 6.89 | >50 µg/mL | — (No proliferation decrease up to 50 μg/ml) | – | dramatically reduced activity, to levels lower than the original peptide (BPI.2) | – | –
16 | IKISGKWKAQWRFLK [BPI.77] | 1,684.35 pmol | b (no detectable activity up to 5 μg/well) | – | 455.08 pmol | – | 581.7 | 6.52 | 10 ± 32 µg/mL | >50 µg/mL | – | – | – | –
17 | KSKVGWLIALFHKK [BPI.39] | – | b (no detectable activity up to 5 μg/well) | 1791.81 | 316.20 pmol | 12.50 | 335.6 | 6.12 | – | – | – | – | – | greater than 8 fold
